# Measurements from patent US8703114B2, “Conjugate of a polymer, an anti-angiogenesis agent and a targeting moiety, and uses thereof in the treatment of bone related angiogenesis conditions” (priority 2008, dated 2014).
# Where two headings read alike, the source gives them in different places.
# Legend:
# [1] = system: MG-63-Ras human osteosarcoma tumors; test: Immunohistochemistry of tumors (H & E, CD34 microvessel density); assay type: in vivo, mice
# Description: Immunohistochemistry of tumor nodules was performed using 5 μm thick formalin-fixed, paraffin-embedded tissue sections. Paraffin sections were de-paraffinized, rehydrated, and stained by hematoxylin and eosin (H & E). For CD34 staining (an endothelial cell marker), slides were deparaffinized and pre-treated with 10 mM citrate, pH 6.0 for 50 min in a steam pressure cooker (Decloaking Chamber, BioCare Medical, Walnut Creek, Calif.). All further steps were performed at room temperature in a hydrated chamber. Slides were covered with Peroxidase Block (Merck, Germany) for 5 minutes to quench endogenous peroxidase activity, followed by incubation with 10% of rabbit serum in 50 mM Tris-HCl, pH 7.4, for 30 min to block non-specific binding sites. Primary rat anti-murine CD34 antibody (MEC 14.7 1:50 dilution; Abcam, Cambridge, Mass.) was applied in 1% rabbit serum in Tris-HCl, pH 7.4 at room temperature for 1 hour. Slides were washed in 50 mM TrisHCl, pH 7.4 and rabbit anti-rat antibody (1:750 dilution; Vector Laboratories, CA, USA) was applied for 30 minutes, followed by anti-rabbit horseradish peroxidase-conjugated antibody (ABC detection kit, Vector Laboratories, CA, USA). Following further washing, immunoperoxidase staining was developed using a ImmPACT™ DAB diluent kit (Vector Laboratories, CA, USA) per the manufacturer instructions and counterstained with methyl green. Microvessel density (MVD) was calculated as previously described [Weidner et al. 1991, N Engl J Med 324:1-8].
# [2] = system: Saos-2 human osteosarcoma cells; test: Saos-2 cell proliferation assay; assay type: cell-based
# Description: (§1) Human osteosarcoma Saos-2 or MG-63-Ras cells were plated at 2500 cells/well in DMEM supplemented with 5 FBS and incubated for 24 hours (37° C.; 5% CO2). The medium was then replaced with DMEM supplemented with 10% FBS. Cells were exposed to ALN, TNP-470, and HPMA copolymer-ALN-TNP-470 conjugate or with equivalent concentrations of combinations of free ALN and TNP-470 at serial dilutions. […] Control cells were grown in the presence or absence of growth factors. HUVEC or Saos-2 viable cells were counted by a Z1 Coulter® Particle Counter (Beckman Coulter™) or by XTT reagent respectively after 72 hours of incubation.
# [3] = system: HUVEC; test: HUVEC cell proliferation assay; settings: for IC30 of HUVEC proliferation / IC70 of HUVEC proliferation: single treatment
# Description: HUVEC were plated at 10,000 cells/well onto 24-well culture plates in EBM-2 supplemented with 5% FBS and incubated for 24 hours (37° C.; 5% CO2). Medium was replaced with 2.5% endothelial cell basal medium-2 (EBM-2) supplemented with 1% Endothelial cell growth supplement (ECGS). Human osteosarcoma Saos-2 or MG-63-Ras cells were plated at 2500 cells/well in DMEM supplemented with 5 FBS and incubated for 24 hours (37° C.; 5% CO2). The medium was then replaced with DMEM supplemented with 10% FBS. Cells were exposed to ALN, TNP-470, and HPMA copolymer-ALN-TNP-470 conjugate or with equivalent concentrations of combinations of free ALN and TNP-470 at serial dilutions. HUVEC were also incubated with or without 1 μM of cathepsin-K inhibitor III. Control cells were grown in the presence or absence of growth factors. HUVEC or Saos-2 viable cells were counted by a Z1 Coulter® Particle Counter (Beckman Coulter™) or by XTT reagent respectively after 72 hours of incubation.
# IC50 represents the concentration of a drug that is required for 50% inhibition in vitro. The IC30, 50, 70 values of treatment with ALN, TNP-470 and their respective combinations from HUVEC proliferation assay were collected. IC30, 50, 70 values of TNP-470 and ALN were marked on X, Y axis respectively and a line which represents additive effect was drawn between each inhibitory concentration (IC). The combination index (CI) of each treatment was calculated according to the classic isobologram equation CI=[(D)1/(Dx)1]+[(D)2/(Dx)2] as previously described [Chou T. C. Pharmocol Rev 2006; 58:621-681]. Area on the right side of each IC additive line represents antagonist effect while the left side represents synergic effect.
# [4] = system: VEGF-induced extravasation of Evans blue dye; test: Miles vascular permeability assay; assay type: in vivo, Balb/c mice; settings: 30 mg/kg TNP-470 equivalents s.c., assay three days later
# Description: Balb/c male mice were injected subcutaneously (s.c.) with TNP-470, HPMA copolymer-ALN-TNP-470 conjugate (30 mg/kg TNP-470 equivalents) or saline (n=5 mice/group). Three days later, a modified Miles assay was performed as previously described [Claffey et al. 1996, Cancer Res 56: 172-181; Miles & Miles 1952, J Physiol 118:228-257]. Briefly, Evans blue dye (100 μl of a 1% solution in 0.9% NaCl) was injected into the retro-orbital plexus of the mice. Ten minutes later, 50 μl of human VEGF165 (1 ng/μl) or PBS were injected intradermally into the pre-shaved back skin. Twenty minutes later, the animals were killed, and an area of skin that included the entire injection site was removed. Evans blue dye was extracted from the skin by incubation with formamide for 5 days at room temperature, and the absorbance of the extracted dye was measured at 620 nm. Data is expressed as mean±standard error of the mean (s.e.m.).
# [5] = system: HUVEC; test: HUVEC migration assay towards VEGF; assay type: cell-based, human
# Description: Cell migration assays were performed using modified 8 μm Boyden chambers coated with 10 μg/ml fibronectin. […] Following incubation, cells were allowed to migrate to the underside of the chamber for 4 hours in the presence or absence of Vascular endothelial growth factor (VEGF) (20 ng/ml) in the lower chamber. Cells were then fixed with ice-cold […] and stained using Hema 3 Stain System. The stained migrated cells were imaged using Nikon TE2000E inverted microscope integrated with Nikon DS5 cooled CCD camera by 10× objective, brightfield illumination. Migrated cells from the captured images per membrane were counted using NIH image software. Migration was normalized to percent migration, with 100% representing VEGF dependent migration of cells which were not incubated with free or HPMA-conjugated ALN and TNP-470.
# [6] = system: MG-63-Ras human osteosarcoma cells; test: MG-63-Ras cell proliferation assay; assay type: cell-based
# Description: as §1
# [7] = system: mCherry-labeled MG-63-Ras human osteosarcoma; test: Antitumor activity on MG-63-Ras human osteosarcoma in mice; assay type: in vivo, SCID mice; settings: day 19, 30 mg/kg q.o.d. 3 times s.c.
# Description: SCID male were inoculated s.c. with 5×10^5 mCherry-labeled MG-63-Ras human osteosarcoma. Mice bearing 70 mm^3 tumors were injected s.c. with combination of free ALN and TNP-470 (1:1, 30 mg/kg), FITC-labeled HPMA copolymer-ALN-TNP-470 conjugate (30 mg/kg q.o.d.×3 times TNP-470-equivalent dose) or saline (n=5 mice/group). Therapy was initiated at a relatively early state (70 mm^3) in order to imitate a metastatic scenario as well as an early primary osteosarcoma. Tumor progression was monitored by caliper measurement (width×length^2×0.52) and by CRI™ Maestro non-invasive intravital imaging system. At termination, tumors were dissected, weighed and analyzed. Data is expressed as mean±standard error of the mean (s.e.m.).
# CRI Maestro™ non-invasive fluorescence imaging system was used to follow tumor progression of mice bearing mCherry-labeled MG-63-Ras human osteosarcoma tumors and for biodistribution studies of FITC-labeled HPMA copolymer-ALN-TNP-470 conjugate. Mice were maintained on a non-fluorescent diet (Harlan) for the whole period of the experiment. Mice were anesthetized using ketamine (100 mg/kg) and xylazine (12 mg/kg), treated with a depilatory cream (Veet®) and placed inside the imaging system. Alternatively, selected organs from mice were dissected and placed inside the imaging system. […]
# [8] = Hydroxyapatite binding assay; settings: PBS pH 7.4
# Description: In order to assess the ability of HPMA copolymer-ALN-TNP-470 conjugate to bind to bone mineral, its binding potency to hydroxyapatite (HA) was evaluated. HPMA copolymer-ALN-TNP-470 conjugate was dissolved in phosphate buffered saline (PBS), pH 7.4 (1 mg/ml). The conjugate solution (500 μl) was incubated with hydroxyapatite powder (15 mg), in 500 μl PBS, pH 7.4. HPMA copolymer-Gly-Phe-Leu-Gly was used as control. Incubated samples were centrifuged at 6000 RPM for 3 minutes and a sample from the upper layer (100 μl) was collected at selected time points. FPLC analysis using HighTrap desalting column (Amersham®) was used for detection of unbound conjugate in the samples (FPLC conditions: AKTA™ Purifier®, mobile phase 100% DDW, 2 ml/minute, 215 nm). Hydroxyapatite binding kinetic analysis of the conjugate was performed using the Unicorn® AKTA™ software. Areas under the curve (AUC) were calculated from chromatographs at each time point. AUC of each hydroxyapatite incubated conjugate chromatogram was normalized to percent AUC of conjugate sample in the absence of hydroxyapatite used as control.
# [9] = system: HUVEC; test: Capillary-like tube formation assay; assay type: cell-based, human
# Description: The surface of 24-well plates was coated with Matrigel® basement membrane (50 μl/well; 10 mg/ml) on ice and was allowed to polymerize at 37° C. for 30 minutes. […] After 8 hours of incubation (37° C.; 5% CO2), wells were imaged using Nikon TE2000E inverted microscope integrated with Nikon DS5 cooled CCD camera by 4× objective, brightfield illumination. […]
# [10] = equivalent concentration 0.1 nM
# [11] = Homo sapiens, HUVEC, read-out: IC50 of HUVEC proliferation
compound,measurement,setting,value
HPMA-Gly-Gly-Pro-Nle-ALN-TNP-470 [HPMA copolymer-ALN-TNP-470 conjugate],Microvessel density (MVD),[1]; CD34 staining,32±9 microvessels/mm^2
same,Reduction in microvessel density (MVD) vs control,[1]; CD34 staining,74%
same,Tumor histology (H & E),"[1]; mouse, in vivo",almost regressed
same,IC50,[2],30 µM
same,Cytotoxic effect on HUVEC at doses higher than,[3]; ALN and TNP-470 equivalent concentrations,> 10 nM
same,Concentrations inhibiting HUVEC proliferation in the presence of cathepsin K inhibitor III,"[3]; ALN-equivalent concentrations, 72 hours",higher than 4 μM
same,Shift of concentration inhibiting HUVEC proliferation in presence vs absence of cathepsin K inhibitor III,[3]; higher concentration in presence of inhibitor,4 logs
same,IC50,"[3]; read-out: IC50 of ECGS-induced HUVEC proliferation, ALN and TNP-470 equivalent concentrations, 72 hours",1 nM
same,IC50,"[3]; read-out: IC50 of HUVEC proliferation in the presence of cathepsin K inhibitor III, 1 μM cathepsin K inhibitor III",4200 nM
same,Inhibition of VEGF-induced extravasation of Evans blue dye vs vehicle,[4],92%
same,Inhibition of chemotactic migration response to VEGF,[5]; [10],18%
same,Inhibition of chemotactic migration response to VEGF,[5]; equivalent concentration 1 nM,35%
same,Inhibition of chemotactic migration response to VEGF,[5]; equivalent concentration 10 nM,61%
same,IC50,[6],10 µM
same,Tumor growth inhibition,[7],96%
same,Conjugate bound to hydroxyapatite,[8]; 2 minutes of incubation,50%
same,Conjugate bound to hydroxyapatite,[8]; plateau after 175 minutes of incubation,92%
same,Inhibition of capillary-like tube length vs untreated control,[9]; equivalent concentration 0.01 nM,29%
same,Inhibition of capillary-like tube length vs untreated control,[9]; [10],54%
same,Inhibition of capillary-like tube length vs untreated control,[9]; equivalent concentration 1 nM,64%
"NCCCC(O)(P(=O)(O)O)P(=O)(O)O [ALN, (4-amino-1-hydroxybutylidene)bisphosphonic acid]",Dose dependence of inhibition of Saos-2 proliferation,[2],inhibited at a dose dependent manner
same,Dose dependence of inhibition of ECGS-induced HUVEC proliferation,[3],inhibited at a dose dependent manner
same,IC50,[3]; [11],50000 nM
same,IC30 of HUVEC proliferation,[3],10 µM
same,IC70 of HUVEC proliferation,[3],90 µM
CO[C@@H]1[C@H](OC(=O)NC(=O)CCl)CC[C@]2(CO2)[C@H]1[C@@]1(C)O[C@@H]1CC=C(C)C [TNP-470],"Inhibition of HUVEC proliferation, free vs conjugated TNP-470",[3],inhibited similarly
same,IC50,[3]; [11],0.1 nM
same,IC30 of HUVEC proliferation,[3],2.5e-07 µM
same,IC70 of HUVEC proliferation,[3],1 µM
same,Inhibition of chemotactic migration response to VEGF,"[5]; equivalent concentrations of 0.1, 1 and 10 nM",dramatically inhibited
